Measured values published in ChEMBL document CHEMBL6134873, “Identification of Novel Cyclobutane-Based Derivatives as Potent Acetyl-CoA Carboxylase Allosteric Inhibitors for Nonalcoholic Steatohepatitis Drug Discovery” (J Med Chem, 2025).

How the values were obtained:
[1] = MRT (0 to t) in Sprague-Dawley rat at 1 mg/kg, iv measured for 0.25 to 24 hrs by LC-MS/MS analysis; assay type: ADME, organism-based; details: in vivo, time 0.25-24 hrs
[2] = Volume of distribution in Sprague-Dawley rat at 1 mg/kg, iv measured for 0.25 to 24 hrs by LC-MS/MS analysis; assay type: ADME, organism-based; details: in vivo, time 0.25-24 hrs
[3] = molecular target: T1, Cytochrome P450 3A4 (Homo sapiens, UniProt P08684); assay: Inhibition of CYP3A4 (unknown origin) using midazolam as substrate; assay type: ADME
T1 sequence (P08684 whole entry): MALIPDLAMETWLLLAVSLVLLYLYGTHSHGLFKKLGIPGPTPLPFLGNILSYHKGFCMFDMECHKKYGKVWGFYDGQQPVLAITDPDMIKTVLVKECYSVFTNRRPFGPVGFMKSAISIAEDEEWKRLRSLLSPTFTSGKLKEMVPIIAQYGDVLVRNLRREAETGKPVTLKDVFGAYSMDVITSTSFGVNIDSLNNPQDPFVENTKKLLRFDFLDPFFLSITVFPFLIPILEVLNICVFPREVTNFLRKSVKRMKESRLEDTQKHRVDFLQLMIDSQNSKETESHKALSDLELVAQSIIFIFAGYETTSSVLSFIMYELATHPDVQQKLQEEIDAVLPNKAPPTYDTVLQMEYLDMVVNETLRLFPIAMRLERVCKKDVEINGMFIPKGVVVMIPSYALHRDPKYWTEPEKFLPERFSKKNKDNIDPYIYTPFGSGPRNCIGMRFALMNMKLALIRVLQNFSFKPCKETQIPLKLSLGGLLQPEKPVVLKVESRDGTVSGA

[4] = molecular target: Cytochrome P450 2D6 (Homo sapiens, UniProt P10635); assay: Inhibition of CYP2D6 (unknown origin); assay type: ADME
Cytochrome P450 2D6, sequence (P10635 whole entry): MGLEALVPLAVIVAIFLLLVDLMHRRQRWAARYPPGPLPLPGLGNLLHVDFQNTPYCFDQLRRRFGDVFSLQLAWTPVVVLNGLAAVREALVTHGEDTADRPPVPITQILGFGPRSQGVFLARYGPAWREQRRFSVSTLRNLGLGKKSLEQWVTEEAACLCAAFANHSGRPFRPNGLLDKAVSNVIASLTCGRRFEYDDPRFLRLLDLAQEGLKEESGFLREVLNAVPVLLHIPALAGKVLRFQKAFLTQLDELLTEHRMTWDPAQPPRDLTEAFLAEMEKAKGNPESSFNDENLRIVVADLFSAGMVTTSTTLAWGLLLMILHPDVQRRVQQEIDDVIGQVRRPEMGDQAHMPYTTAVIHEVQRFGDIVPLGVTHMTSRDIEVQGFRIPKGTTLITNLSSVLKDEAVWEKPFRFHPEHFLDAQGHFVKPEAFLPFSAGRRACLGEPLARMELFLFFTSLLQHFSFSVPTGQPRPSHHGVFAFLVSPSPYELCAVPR

[5] = Protein binding in monkey plasma; assay type: ADME, cell-free, Macaca mulatta; details: rhesus monkey, read-out: PPB (converted)
[6] = in vivo; details: Sprague-Dawley, rat, liver, po, 3 mg/kg
Description: Drug concentration in liver of Sprague-Dawley rat at 3 mg/kg, po measured after 4 hrs by LC-MS/MS analysis

[7] = Biodistribution in 12 hr-fasted male wild-type Sprague-Dawley rat assessed as increase in ratio of drug concentration in liver/plasma at 3 mg/kg, po measured for 0.25 to 4 hrs by LC-MS/MS analysis; assay type: ADME, organism-based; details: in vivo, time 0.25-4 hrs
[8] = Intrinsic clearance in monkey liver microsomes; assay type: ADME, Macaca mulatta, Microsome; details: rhesus monkey, read-out: CLH
[9] = Intrinsic clearance in dog liver microsomes; assay type: ADME, Canis lupus familiaris, Microsome; details: read-out: CLH
[10] = Toxicity in Sprague-Dawley rat model of DEN-induced liver fibrosis assessed as body weight loss at 3 to 10 mg/kg, po qd treated for 4 weeks; assay type: organism-based; details: in vivo, 672 h, dose 3-10 mg/kg
[11] = Intrinsic clearance in human liver microsomes; assay type: ADME, Microsome; details: read-out: CLH
[12] = Protein binding in dog plasma; assay type: ADME, cell-free, Canis lupus familiaris; details: read-out: PPB (converted)
[13] = Half life in Sprague-Dawley rat at 1 mg/kg, iv measured for 0.25 to 24 hrs by LC-MS/MS analysis; assay type: ADME, organism-based; details: in vivo, time 0.25-24 hrs
[14] = Intrinsic clearance in rat liver microsomes; assay type: ADME, Microsome; details: read-out: CLH
[15] = Biodistribution in 12 hr-fasted male wild-type Sprague-Dawley rat assessed as increase in ratio of drug concentration in kidney/plasma at 3 mg/kg, po measured after 4 hrs by LC-MS/MS analysis; assay type: ADME, organism-based; details: in vivo
[16] = Tmax in Sprague-Dawley rat at 3 mg/kg, po measured for 0.25 to 24 hrs by LC-MS/MS analysis; assay type: ADME, organism-based; details: in vivo, time 0.25-24 hrs
[17] = molecular target: T2, Cytochrome P450 1A2 (Homo sapiens, UniProt P05177); assay: Inhibition of CYP1A2 (unknown origin); assay type: ADME
T2 sequence (P05177 whole entry): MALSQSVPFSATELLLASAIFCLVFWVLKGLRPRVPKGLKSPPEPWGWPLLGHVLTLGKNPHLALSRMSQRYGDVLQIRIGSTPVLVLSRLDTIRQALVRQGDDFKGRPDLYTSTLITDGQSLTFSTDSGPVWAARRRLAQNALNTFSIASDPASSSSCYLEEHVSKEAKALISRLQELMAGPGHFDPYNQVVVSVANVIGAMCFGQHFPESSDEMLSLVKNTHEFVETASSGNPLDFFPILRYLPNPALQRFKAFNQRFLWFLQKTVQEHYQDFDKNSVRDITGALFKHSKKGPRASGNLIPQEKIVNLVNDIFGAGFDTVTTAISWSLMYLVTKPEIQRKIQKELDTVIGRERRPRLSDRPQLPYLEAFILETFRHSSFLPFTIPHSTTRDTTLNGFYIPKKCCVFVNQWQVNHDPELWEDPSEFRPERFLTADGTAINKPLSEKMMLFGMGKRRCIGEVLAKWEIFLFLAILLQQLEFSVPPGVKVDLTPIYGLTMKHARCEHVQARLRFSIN

[18] = molecular target: T1, Cytochrome P450 3A4; assay: Inhibition of CYP3A4 (unknown origin) using testosterone as substrate; assay type: ADME
[19] = molecular target: Acetyl-CoA carboxylase 2 (Homo sapiens, UniProt O00763)
Acetyl-CoA carboxylase 2, sequence (O00763 whole entry): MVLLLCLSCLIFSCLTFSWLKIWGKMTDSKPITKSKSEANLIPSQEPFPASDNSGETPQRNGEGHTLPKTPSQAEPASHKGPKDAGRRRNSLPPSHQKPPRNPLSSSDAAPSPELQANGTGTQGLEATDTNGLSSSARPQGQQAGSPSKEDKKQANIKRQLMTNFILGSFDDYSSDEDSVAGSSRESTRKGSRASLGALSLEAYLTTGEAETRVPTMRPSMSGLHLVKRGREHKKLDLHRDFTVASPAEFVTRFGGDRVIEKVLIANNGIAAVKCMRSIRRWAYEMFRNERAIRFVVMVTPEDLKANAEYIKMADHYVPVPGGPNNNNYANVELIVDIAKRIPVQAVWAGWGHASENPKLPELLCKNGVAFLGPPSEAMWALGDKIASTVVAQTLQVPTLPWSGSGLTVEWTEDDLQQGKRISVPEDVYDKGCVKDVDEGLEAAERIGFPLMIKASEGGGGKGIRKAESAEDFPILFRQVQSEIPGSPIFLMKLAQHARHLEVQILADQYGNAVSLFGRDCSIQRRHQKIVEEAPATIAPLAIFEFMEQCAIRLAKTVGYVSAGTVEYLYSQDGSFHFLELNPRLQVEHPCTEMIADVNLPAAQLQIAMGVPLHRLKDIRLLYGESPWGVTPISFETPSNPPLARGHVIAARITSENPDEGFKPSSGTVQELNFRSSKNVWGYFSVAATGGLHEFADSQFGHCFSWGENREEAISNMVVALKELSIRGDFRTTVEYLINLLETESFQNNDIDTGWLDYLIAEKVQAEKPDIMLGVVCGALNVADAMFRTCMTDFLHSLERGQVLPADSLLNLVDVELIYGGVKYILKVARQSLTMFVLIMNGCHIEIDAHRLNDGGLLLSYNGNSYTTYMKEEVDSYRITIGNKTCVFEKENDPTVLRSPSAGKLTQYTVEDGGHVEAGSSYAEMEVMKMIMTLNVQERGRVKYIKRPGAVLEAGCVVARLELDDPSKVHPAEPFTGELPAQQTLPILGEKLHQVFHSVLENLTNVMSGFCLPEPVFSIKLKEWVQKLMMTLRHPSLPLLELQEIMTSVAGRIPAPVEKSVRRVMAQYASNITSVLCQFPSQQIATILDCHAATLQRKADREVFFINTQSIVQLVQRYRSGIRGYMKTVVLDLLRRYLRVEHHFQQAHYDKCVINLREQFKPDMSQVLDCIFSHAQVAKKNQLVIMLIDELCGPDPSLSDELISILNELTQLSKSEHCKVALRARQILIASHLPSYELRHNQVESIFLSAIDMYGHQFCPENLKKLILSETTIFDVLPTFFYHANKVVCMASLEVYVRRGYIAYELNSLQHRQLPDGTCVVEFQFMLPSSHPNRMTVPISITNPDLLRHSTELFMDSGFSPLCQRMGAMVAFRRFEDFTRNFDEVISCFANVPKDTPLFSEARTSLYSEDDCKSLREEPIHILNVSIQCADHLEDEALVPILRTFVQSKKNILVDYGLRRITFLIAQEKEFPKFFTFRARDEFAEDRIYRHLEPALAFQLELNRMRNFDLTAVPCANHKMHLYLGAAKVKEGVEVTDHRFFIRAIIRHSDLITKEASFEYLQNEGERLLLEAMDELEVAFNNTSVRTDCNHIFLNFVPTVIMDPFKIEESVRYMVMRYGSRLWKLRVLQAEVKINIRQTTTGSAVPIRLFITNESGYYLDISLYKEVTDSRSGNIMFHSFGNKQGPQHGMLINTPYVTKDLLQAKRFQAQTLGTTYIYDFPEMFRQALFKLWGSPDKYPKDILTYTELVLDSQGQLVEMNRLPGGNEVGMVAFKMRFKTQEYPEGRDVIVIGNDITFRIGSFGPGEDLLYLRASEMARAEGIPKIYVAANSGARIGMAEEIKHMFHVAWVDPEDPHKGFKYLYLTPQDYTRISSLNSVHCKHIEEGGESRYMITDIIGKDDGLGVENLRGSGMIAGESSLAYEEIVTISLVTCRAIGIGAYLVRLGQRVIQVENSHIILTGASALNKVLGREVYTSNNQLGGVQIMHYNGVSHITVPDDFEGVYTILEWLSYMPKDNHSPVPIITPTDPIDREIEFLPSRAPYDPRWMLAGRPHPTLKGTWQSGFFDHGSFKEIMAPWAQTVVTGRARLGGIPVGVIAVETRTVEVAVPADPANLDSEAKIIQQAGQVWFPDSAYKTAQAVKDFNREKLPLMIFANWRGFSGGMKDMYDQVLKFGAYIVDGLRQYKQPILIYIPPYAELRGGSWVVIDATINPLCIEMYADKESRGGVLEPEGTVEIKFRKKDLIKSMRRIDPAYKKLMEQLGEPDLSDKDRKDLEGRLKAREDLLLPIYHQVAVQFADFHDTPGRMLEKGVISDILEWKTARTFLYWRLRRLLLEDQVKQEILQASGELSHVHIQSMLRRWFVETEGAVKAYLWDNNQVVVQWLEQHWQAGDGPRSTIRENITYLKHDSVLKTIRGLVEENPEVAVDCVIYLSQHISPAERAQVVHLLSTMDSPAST
Description: Inhibition of recombinant human ACC2 using acetyl-Co A as substrate incubated for 60 mins in presence of ATP by ADP-Glo assay

[20] = Oral bioavailability in Sprague-Dawley rat at 3 mg/kg measured for 0.25 to 24 hrs by LC-MS/MS analysis; assay type: ADME, organism-based; details: in vivo, time 0.25-24 hrs
[21] = in vivo; details: Sprague-Dawley, rat, liver, po, 3 mg/kg; remark: listed apart in the source
Description: Drug concentration in liver of Sprague-Dawley rat at 3 mg/kg, po measured after 0.25 hrs by LC-MS/MS analysis

## COc1ccccc1[C@H](Cn1c(=O)n([C@H]2C[C@@](C)(C(=O)O)C2)c(=O)c2c(C)c(-c3ncco3)sc21)OC1CCOCC1
[1]
  MRT last: 18 min
[2]
  Vd: 2.8 L/kg
[3]
  IC50: > 30 µM
[4]
  IC50: > 30 µM
[5]
  fraction unbound: 0.043
[6]
  concentration at 4 h: 4830 ng/mL
[7]
  Drug uptake: Active
[8]
  CLint scaled: < 13 mL/min/kg
[9]
  CLint scaled: < 13.8 mL/min/kg
[10]
  Activity: Non-toxic
[11]
  CLint scaled: < 8.6 mL/min/kg
[12]
  fraction unbound: 0.054
[13]
  half-life: 30 min
[14]
  CLint scaled: < 17.3 mL/min/kg
[15]
  Drug uptake: Not_active
[16]
  Tmax: 24 min
[17]
  IC50: > 30 µM
[18]
  IC50: > 30 µM
[19]
  IC50: 3.74 nM
[20]
  bioavailability: 22%
[21]
  concentration at 0.25 h: 3390 ng/mL
